Test results as given in patent US20100137313A1 (ASTRAZENECA AB, priority 2008, published 2010).

Each compound was assayed against S. pneumoniae Topoisomerase IV ATPase (ParE) (Streptococcus pneumoniae serotype 4, UniProt Q59961) (assay: S. pneumoniae Topoisomerase IV ATPase inhibition). Conditions: values marked * are an average of two or more data points, read-out: % Inh (13 μM) of S. pneumoniae Topoisomerase IV ATPase.
Type: biochemical
Procedure, shortened: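 Phosphate-release ATPase assay: 1.25 nM ParE, 160 μM ATP, DNA-stimulated. Quench with malachite green/molybdate in 1 M HCl, read 650 nm; IC50 from 10-point dose series.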

Chain of S. pneumoniae Topoisomerase IV ATPase (ParE) (Q59961 whole entry): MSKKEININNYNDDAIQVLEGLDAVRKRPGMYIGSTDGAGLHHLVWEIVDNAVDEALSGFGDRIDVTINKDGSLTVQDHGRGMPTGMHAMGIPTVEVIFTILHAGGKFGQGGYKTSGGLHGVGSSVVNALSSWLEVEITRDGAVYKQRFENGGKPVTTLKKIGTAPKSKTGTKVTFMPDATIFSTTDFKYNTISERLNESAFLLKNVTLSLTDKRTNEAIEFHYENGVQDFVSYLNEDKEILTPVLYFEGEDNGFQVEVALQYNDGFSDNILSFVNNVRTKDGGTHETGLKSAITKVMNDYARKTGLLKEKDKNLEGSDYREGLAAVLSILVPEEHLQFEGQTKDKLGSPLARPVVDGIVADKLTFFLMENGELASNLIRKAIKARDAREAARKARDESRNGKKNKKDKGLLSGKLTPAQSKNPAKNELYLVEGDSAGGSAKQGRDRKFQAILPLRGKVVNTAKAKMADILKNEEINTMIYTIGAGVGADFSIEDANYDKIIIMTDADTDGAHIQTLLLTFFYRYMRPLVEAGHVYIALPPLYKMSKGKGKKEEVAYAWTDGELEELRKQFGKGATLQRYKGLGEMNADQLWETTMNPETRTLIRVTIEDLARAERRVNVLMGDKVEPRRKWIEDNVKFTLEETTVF

SMILES	inhibition at 13 µM [%]
Cc1cc(C)cc(Nc2ncc(-c3cncc(C(=O)O)c3)c(N3CCOCC3)n2)c1 [Example 389, 5-[2-(3,5-Dimethyl-phenylamino)-4-morpholin-4-yl-pyrimidin-5-yl]-nicotinic acid]	85
N#Cc1cc(Cl)cc(Nc2ncc(-c3cncc(C(=O)O)c3)c(N3CCOCC3)n2)c1 [Example 392, 5-[2-(3-Chloro-5-cyano-phenylamino)-4-morpholin-4-yl-pyrimidin-5-yl]-nicotinic acid]	74
O=C(O)c1cccc(-c2cnc(Nc3cc(F)cc(Cl)c3)nc2N2CCOCC2)n1 [Example 393, 6-[2-(3-Chloro-5-fluoro-phenylamino)-4-morpholin-4-yl-pyrimidin-5-yl]-pyridine-2-carboxylic acid]	82
COc1cc(F)cc(Nc2ncc(-c3cncc(C(=O)O)c3)c(N3CCOCC3)n2)c1 [Example 394, 5-[2-(3-Fluoro-5-methoxy-phenylamino)-4-morpholino-4-yl-pyrimidin-5-yl]-nicotinic acid]	94
COc1c(F)cc(Nc2ncc(-c3cccc(/C=C/C(=O)O)c3)c(N3CCOCC3)n2)cc1F [Example 403, (E)-3-{3-[2-(3,5-Difluoro-4-methoxy-phenylamino)-4-morpholin-4-yl-pyrimidin-5-yl]-phenyl}-acrylic acid]	30
O=C(O)/C=C/c1cccc(-c2cnc(Nc3cc(F)cc(F)c3)nc2N2CCOCC2)c1 [Example 404, (E)-3-{3-[2-(3,5-Difluoro-phenylamino)-4-morpholin-4-yl-pyrimidin-5-yl]-phenyl}-acrylic acid]	81
Cc1cc(C)cc(Nc2ncc(-c3cccc(/C=C/C(=O)O)c3)c(N3CCOCC3)n2)c1 [Example 405, (E)-3-{3-[2-(3,5-Dimethyl-phenylamino)-4-morpholin-4-yl-pyrimidin-5-yl]-phenyl}-acrylic acid]	85
N#Cc1cc(F)cc(Nc2ncc(-c3cccc(/C=C/C(=O)O)c3)c(N3CCOCC3)n2)c1 [Example 407, (E)-3-{3-[2-(3-Cyano-5-fluoro-phenylamino)-4-morpholin-4-yl-pyrimidin-5-yl]-phenyl}-acrylic acid]	86
N#Cc1cc(Cl)cc(Nc2ncc(-c3cccc(/C=C/C(=O)O)c3)c(N3CCOCC3)n2)c1 [Example 408, (E)-3-{3-[2-(3-Chloro-5-cyano-phenylamino)-4-morpholin-4-yl-pyrimidin-5-yl]-phenyl}-acrylic acid]	100
O=C(O)/C=C/c1cccc(-c2cnc(Nc3cc(F)cc(Cl)c3)nc2N2CCOCC2)c1 [Example 409, (E)-3-{3-[2-(3-Chloro-5-fluoro-phenylamino)-4-morpholin-4-yl-pyrimidin-5-yl]-phenyl}-acrylic acid]	77
COc1cc(F)cc(Nc2ncc(-c3cccc(/C=C/C(=O)O)c3)c(N3CCOCC3)n2)c1 [Example 410, (E)-3-{3-[2-(3-Fluoro-5-methoxy-phenylamino)-4-morpholin-4-yl-pyrimidin-5-yl]-phenyl}-acrylic acid]	100
O=C(O)c1cncc(-c2cnc(Nc3ccc(F)cc3)nc2N2CCOCC2)c1 [Example 435]	51
O=C(O)c1cncc(-c2cnc(Nc3ccc(F)c([N+](=O)[O-])c3)nc2N2CCOCC2)c1 [Example 436]	69
O=C(O)c1cncc(-c2cnc(Nc3ccc(F)c(C(F)(F)F)c3)nc2N2CCOCC2)c1 [Example 437]	75
Cc1cc(Nc2ncc(-c3cncc(C(=O)O)c3)c(N3CCOCC3)n2)ccc1F [Example 438]	81
COc1cccc(Nc2ncc(-c3cncc(C(=O)O)c3)c(N3CCOCC3)n2)c1 [Example 439]	62
N#Cc1cc(Nc2ncc(-c3cncc(C(=O)O)c3)c(N3CCOCC3)n2)ccc1F [Example 440]	85
COc1cc(Nc2ncc(-c3cncc(C(=O)O)c3)c(N3CCOCC3)n2)ccc1F [Example 441]	74
O=C(O)c1cncc(-c2cnc(Nc3ccc(F)c(Br)c3)nc2N2CCOCC2)c1 [Example 443]	85
O=C(O)c1cncc(-c2cnc(Nc3ccc(F)c(S(=O)(=O)N4CCOCC4)c3)nc2N2CCOCC2)c1 [Example 444]	7
COc1cc(Nc2ncc(-c3cncc(C(=O)O)c3)c(N3CCOCC3)n2)cc(-n2nnnc2C)c1 [Example 445]	34
O=C(O)/C=C/c1cccc(-c2cnc(Nc3ccc(F)cc3)nc2N2CCOCC2)c1 [Example 447]	50

SMILES	inhibition at 13 µM [%]
O=C(O)/C=C/c1cccc(-c2cnc(Nc3ccc(F)c([N+](=O)[O-])c3)nc2N2CCOCC2)c1 [Example 448]	82
Cc1cc(Nc2ncc(-c3cccc(/C=C/C(=O)O)c3)c(N3CCOCC3)n2)ccc1F [Example 450]	86
COc1cccc(Nc2ncc(-c3cccc(/C=C/C(=O)O)c3)c(N3CCOCC3)n2)c1 [Example 451]	70
COc1cc(Nc2ncc(-c3cccc(/C=C/C(=O)O)c3)c(N3CCOCC3)n2)ccc1F [Example 452]	76
COc1cc(Nc2ncc(-c3cccc(/C=C/C(=O)O)c3)c(N3CCOCC3)n2)cc([N+](=O)[O-])c1 [Example 453]	92
O=C(O)/C=C/c1cccc(-c2cnc(Nc3ccc(F)c(Br)c3)nc2N2CCOCC2)c1 [Example 454]	92
COCCOc1cccc(Nc2ncc(-c3cccc(/C=C/C(=O)O)c3)c(N3CCOCC3)n2)c1 [Example 457]	28
O=C(O)c1coc2ccc(-c3cnc(Nc4ccc(F)c(Cl)c4)nc3N3CCOCC3)cc2c1=O [Example 459, 6-(2-(3-chloro-4-fluorophenylamino)-4-morpholinopyrimidin-5-yl)-4-oxo-4H-chromene-3-carboxylic acid]	100
COc1ncc(-c2cnc(Nc3ccc(F)c(Cl)c3)nc2NCCc2cccnc2)cn1 [Example 460, N^2-(3-chloro-4-fluorophenyl)-2′-methoxy-N^4-[2-(pyridin-3-yl)ethyl]-5,5′-bipyrimidine-2,4-diamine]	100
COc1ncc(-c2cnc(Nc3ccc(F)c(Cl)c3)nc2NCCc2ccncc2)cn1 [Example 461, N^2-(3-chloro-4-fluorophenyl)-2′-methoxy-N^4-[2-(pyridin-4-yl)ethyl]-5,5′-bipyrimidine-2,4-diamine]	100
COc1ncc(-c2cnc(Nc3ccc(F)c(Cl)c3)nc2NCCc2c[nH]cn2)cn1 [Example 462, N^2-(3-chloro-4-fluorophenyl)-N^4-[2-(1H-imidazol-4-yl)ethyl]-2′-methoxy-5,5′-bipyrimidine-2,4-diamine]	85
COc1ncc(-c2cnc(Nc3ccc(F)c(Cl)c3)nc2NCc2ccncc2C)cn1 [Example 463, N2-(3-chloro-4-fluorophenyl)-2′-methoxy-N4-((3-methylpyridin-4-yl)methyl)-5,5′-bipyrimidine-2,4-diamine]	67
COc1cc(CNc2nc(Nc3ccc(F)c(Cl)c3)ncc2-c2cnc(OC)nc2)cc(OC)c1 [Example 464, N2-(3-chloro-4-fluorophenyl)-N4-(3,5-dimethoxybenzyl)-2′-methoxy-5,5′-bipyrimidin-2,4-diamine]	36
COc1ccc(CNc2nc(Nc3ccc(F)c(Cl)c3)ncc2-c2cnc(OC)nc2)cn1 [Example 465, N2-(3-chloro-4-fluorophenyl)-2′-methoxy-N4-((6-methoxypyridin-3-yl)methyl)-5,5′-bipyrimidine-2,4-diamine]	59
COc1ncc(-c2cnc(Nc3ccc(F)c(Cl)c3)nc2NCC2CCN(C(=O)C3CC3)CC2)cn1 [Example 466, (4-((2-(3-chloro-4-fluorophenylamino)-2′-methoxy-5,5′-bipyrimidin-4-ylamino)methyl)piperidin-1-yl)(cyclopropyl)methanone]	78
CCN1CC(CNc2nc(Nc3ccc(F)c(Cl)c3)ncc2-c2cnc(OC)nc2)CC1=O (centres unmarked) [Example 467, 4-((2-(3-chloro-4-fluorophenylamino)-2′-methoxy-5,5′-bipyrimidin-4-ylamino)methyl)-1-ethylpyrrolidin-2-one]	76
CCN1CCC(CNc2nc(Nc3ccc(F)c(Cl)c3)ncc2-c2cnc(OC)nc2)CC1 [Example 468, N2-(3-chloro-4-fluorophenyl)-N4-((1-ethylpiperidin-4-yl)methyl)-2′-methoxy-5,5′-bipyrimidine-2,4-diamine]	80
COc1ncc(-c2cnc(Nc3ccc(F)c(Cl)c3)nc2NCc2cnn(C)c2C)cn1 [Example 469, N2-(3-chloro-4-fluorophenyl)-N4-((1,5-dimethyl-1H-pyrazol-4-yl)methyl)-2′-methoxy-5,5′-bipyrimidine-2,4-diamine]	64
Fc1ccc(Nc2ncc(-c3cncnc3)c(NCCc3c[nH]cn3)n2)cc1Cl [Example 471, N^2-(3-chloro-4-fluorophenyl)-N^4-[2-(1H-imidazol-4-yl)ethyl]-5,5′-bipyrimidine-2,4-diamine]	84
NC(=O)c1cncc(-c2cnc(Nc3ccc(F)c(Cl)c3)nc2NCCc2c[nH]cn2)c1 [Example 472, 5-(2-[(3-chloro-4-fluorophenyl)amino]-4-{[2-(1H-imidazol-4-yl)ethyl]amino}pyrimidin-5-yl)-pyridine-3-carboxamide]	100
NC(=O)c1cncc(-c2cnc(Nc3ccc(F)c(Cl)c3)nc2NCCc2cccnc2)c1 [Example 473, 5-(2-[(3-chloro-4-fluorophenyl)amino]-4-{[2-(pyridin-3-yl)ethyl]amino}pyrimidin-5-yl)-pyridine-3-carboxamide]	62
NC(=O)c1cncc(-c2cnc(Nc3ccc(F)c(Cl)c3)nc2NCCc2ccncc2)c1 [Example 474, 5-(2-[(3-chloro-4-fluorophenyl)amino]-4-{[2-(pyridin-4-yl)ethyl]amino}pyrimidin-5-yl)-pyridine-3-carboxamide]	100
